# Data reported in PubChem BioAssay (NCI).
#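 Values below derive from 48-hour exposures of cells grown in 96-well plates, with endpoints linearly interpolated between the two concentrations bracketing the appropriate inhibition level. GI50 is the concentration that inhibits growth by half. TGI: concentration producing complete growth inhibition.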
# Experiments:
# Assay in all cases: growth of human tumour cells (NCI), 48 h
# HT29 colon = test system: HT29 colon
# K-562 leukemia = test system: K-562 leukemia
# MOLT-4 leukemia = test system: MOLT-4 leukemia
# NCI-H226 lung = test system: NCI-H226 lung
# NCI-H522 lung = test system: NCI-H522 lung
# OVCAR-4 ovarian = test system: OVCAR-4 ovarian
# OVCAR-8 ovarian = test system: OVCAR-8 ovarian
# SK-MEL-5 melanoma = test system: SK-MEL-5 melanoma
# SW-620 colon = test system: SW-620 colon
# EKVX NSCLC = test system: EKVX NSCLC
SMILES,GI50 (HT29 colon),TGI (HT29 colon),GI50 (K-562 leukemia),TGI (K-562 leukemia),GI50 (MOLT-4 leukemia),TGI (MOLT-4 leukemia),GI50 (NCI-H226 lung),TGI (NCI-H226 lung),GI50 (NCI-H522 lung),TGI (NCI-H522 lung),GI50 (OVCAR-4 ovarian),TGI (OVCAR-4 ovarian),GI50 (OVCAR-8 ovarian),TGI (OVCAR-8 ovarian),GI50 (SK-MEL-5 melanoma),TGI (SK-MEL-5 melanoma),GI50 (SW-620 colon),TGI (SW-620 colon),TGI (EKVX NSCLC),GI50 (EKVX NSCLC)
COc1c2ccoc2c(/C=C/C=O)c2oc(-c3ccccc3)cc(=O)c12,25.1 µM,> 100 µM,3.21 µM,> 100 µM,2.06 µM,5.24 µM,4.14 µM,20.4 µM,17.6 µM,> 100 µM,3.2 µM,> 100 µM,2.86 µM,> 100 µM,3.04 µM,12.3 µM,2.16 µM,5.21 µM,,
O=C(O)c1cc(C(=O)O)cc(N2C(=O)c3ccccc3C2=O)c1,,> 100 µM,,> 100 µM,,,,> 100 µM,,> 100 µM,,> 100 µM,,> 100 µM,,> 100 µM,,> 100 µM,> 100 µM,
CC(=O)OC1COC(n2c(=S)n(-c3ccc(C)cc3)c(=O)c3ccccc32)C(OC(C)=O)C1OC(C)=O (stereo unspecified),,> 100 µM,,,,> 100 µM,,> 100 µM,,> 100 µM,,> 100 µM,,> 100 µM,,> 100 µM,,> 100 µM,> 100 µM,
O=C(CSC(=S)N1CCCCC1)Nc1nc2c(s1)CCCC2,,> 100 µM,,,,47.8 µM,,> 100 µM,,65.7 µM,,> 100 µM,,> 100 µM,,32.9 µM,,> 100 µM,,
CC1=C(C#N)C23C(=O)c4ccccc4C(O)=C2C(=O)C=CC3(O)N1Cc1ccccc1 (stereo unspecified),43.7 µM,> 100 µM,32.9 µM,> 100 µM,,,,,22.9 µM,58.1 µM,38.6 µM,> 100 µM,38.5 µM,> 100 µM,18 µM,61.5 µM,37.1 µM,> 100 µM,> 100 µM,43.6 µM
Nc1ccc(C(=O)N/C(=C\c2ccc3c(c2)OCO3)c2nc3[nH]c(=S)[nH]c(=O)c3[nH]2)cc1,,> 100 µM,,> 100 µM,,> 100 µM,,,,> 100 µM,,> 100 µM,,> 100 µM,,> 100 µM,,> 100 µM,> 100 µM,
O=C1NC2(CCCCC2)C2CCCCC(O)C12 (stereo unspecified),,> 100 µM,,> 100 µM,,> 100 µM,,> 100 µM,,,,,,> 100 µM,,,,> 100 µM,> 100 µM,
COc1ccc2c(c1)C1(C=N2)CCN(C(C)=O)CC1,,> 100 µM,,> 100 µM,,> 100 µM,,,,,,> 100 µM,,> 100 µM,,> 100 µM,,> 100 µM,> 100 µM,
CSCCCN(CCCSC)CCCSC,,> 100 µM,,> 100 µM,,> 100 µM,,,,> 100 µM,,> 100 µM,,> 100 µM,,> 100 µM,,> 100 µM,> 100 µM,
O=[S@@]1Nc2ccc(Br)cc2S1,,> 100 µM,,> 100 µM,,> 100 µM,,> 100 µM,,68.6 µM,,,,,,> 100 µM,,> 100 µM,> 100 µM,
COc1ccc(-c2cc(=O)c3ccc(O)cc3o2)c(OC)c1OC,,> 100 µM,,> 100 µM,,,,> 100 µM,,82.8 µM,,> 100 µM,,,,,,> 100 µM,> 100 µM,
Nc1cc2nc3ccccc3sc-2cc1=O,2.92 µM,6.86 µM,2.48 µM,> 100 µM,4.26 µM,> 100 µM,4.62 µM,28.4 µM,2.46 µM,5.87 µM,2.15 µM,6.21 µM,3.17 µM,13.8 µM,1.55 µM,2.93 µM,2.95 µM,10.4 µM,,
CCOC(=O)COc1cccc2c1C(=O)CCO2,,> 100 µM,,> 100 µM,,> 100 µM,,,,> 100 µM,,> 100 µM,,> 100 µM,,> 100 µM,,> 100 µM,> 100 µM,
COc1ccc2nc3cc(Cl)ccc3c(Sc3ccccc3[N+](=O)[O-])c2c1,,,,> 100 µM,,> 100 µM,,67.8 µM,,> 100 µM,,> 100 µM,,> 100 µM,,> 100 µM,,> 100 µM,> 100 µM,
Clc1cccc(Cc2cn3cc(-c4ccccc4)nc3s2)c1Cl,> 100 µM,> 100 µM,> 100 µM,> 100 µM,> 100 µM,> 100 µM,27.3 µM,> 100 µM,19.4 µM,> 100 µM,3.85 µM,55.2 µM,23.5 µM,> 100 µM,> 100 µM,> 100 µM,> 100 µM,> 100 µM,,
CCNC1C2(CCCCC2)NC(=O)C12CCCCC2 (stereo unspecified),,> 100 µM,,> 100 µM,,> 100 µM,,> 100 µM,,,,> 100 µM,,> 100 µM,,> 100 µM,,> 100 µM,> 100 µM,
CSc1ccc(/C=C2\CN(C)C/C(=C\c3ccc(SC)cc3)C2=O)cc1,,67 µM,,> 100 µM,,> 100 µM,,> 100 µM,,,,> 100 µM,,39.6 µM,,> 100 µM,,> 100 µM,> 100 µM,
CCN(CC)CC(C(=O)Nc1c(C)cccc1C)/C(C)=N\NC(=O)C[N+](C)(C)C (stereo unspecified),,> 100 µM,,> 100 µM,,> 100 µM,,> 100 µM,,> 100 µM,,> 100 µM,,> 100 µM,,> 100 µM,,> 100 µM,,
COc1cccc(NC(=O)CC(=O)n2nc(C)c(N=Nc3ccccc3)c2C)c1,,> 100 µM,,,,> 100 µM,,> 100 µM,,> 100 µM,,> 100 µM,,> 100 µM,,> 100 µM,,> 100 µM,> 100 µM,
COc1ccc(-n2/c(=N/C(=S)N(C)C)ss/c2=N\C(=S)N(C)C)cc1,,5.97 µM,,> 100 µM,,> 100 µM,,> 100 µM,,16.6 µM,,18.5 µM,,> 100 µM,,,,> 100 µM,> 100 µM,
CCOC(=O)C1=C(C)CC2C(=O)OC(=O)C2C1(C)C (stereo unspecified),,> 100 µM,,> 100 µM,,> 100 µM,,> 100 µM,,> 100 µM,,,,> 100 µM,,> 100 µM,,> 100 µM,> 100 µM,
